Experimental findings from patent US20250188093A1, “TYK2 INHIBITORS AND USES THEREOF” (Alumis Inc., priority 2022, published 2025) are described below.

One test has as its target T1, JAK2 JH1 (Homo sapiens, UniProt O60674).
T1 construct: JAK2 JH1
The experiment in a line: KINOMEscan binding, JAK2 JH1.

The next test addresses T2, TYK2 JH1 (Homo sapiens, UniProt P29597).
T2 construct: TYK2 JH1
T2 sequence (P29597 897-1176 limits assumed): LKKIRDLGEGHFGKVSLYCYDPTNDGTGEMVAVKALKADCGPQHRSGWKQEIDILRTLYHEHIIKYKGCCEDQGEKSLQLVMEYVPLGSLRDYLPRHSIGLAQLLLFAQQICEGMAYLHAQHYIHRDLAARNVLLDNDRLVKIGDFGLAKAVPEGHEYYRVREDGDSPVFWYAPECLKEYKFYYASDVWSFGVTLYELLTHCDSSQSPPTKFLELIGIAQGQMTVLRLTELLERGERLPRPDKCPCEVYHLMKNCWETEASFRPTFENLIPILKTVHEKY
The experiment in a line: KINOMEscan binding, TYK2 JH1.

Another test concerns the target T3, JAK2 JH2 (Homo sapiens, UniProt O60674).
T3 construct: JAK2 JH2
The experiment in a line: KINOMEscan binding, JAK2 JH2.

A further test has as its system IFNa, PBMCs, p-STAT3. The experiment in a line: IFNa induced p-STAT3 in PBMCs. The note with it: PBMC; human PBMCs, IFNa stimulation. The class given is cell-based.
A further test addresses T4, JAK1 JH2 (Homo sapiens, UniProt P23458).
T4 construct: JAK1 JH2
The experiment in a line: KINOMEscan binding, JAK1 JH2.

The target in the next test is T5, JAK1 JH1 (Homo sapiens, UniProt P23458).
T5 construct: JAK1 JH1
T5 sequence (P23458 875-1153 limits assumed): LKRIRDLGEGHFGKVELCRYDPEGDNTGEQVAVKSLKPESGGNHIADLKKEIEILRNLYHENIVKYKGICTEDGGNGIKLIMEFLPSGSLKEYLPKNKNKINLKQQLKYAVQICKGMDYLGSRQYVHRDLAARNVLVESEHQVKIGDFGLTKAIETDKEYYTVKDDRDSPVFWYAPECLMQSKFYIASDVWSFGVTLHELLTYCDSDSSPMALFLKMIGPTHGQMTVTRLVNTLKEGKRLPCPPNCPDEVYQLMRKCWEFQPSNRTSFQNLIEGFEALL
The experiment in a line: KINOMEscan binding, JAK1 JH1.

A further test concerns IFNa, PBMCs, p-STAT5. The experiment in a line: INFα induced pSTAT5 in human PBMC. The class given is cell-based. The note with it: 0.25 h, IFNa 5000 units/ml, 15 minutes. The procedure: Fresh Human PBMCs were resuspended in RPMI 1640 medium with 10% FBS. Cells were seeded in a round bottom 96-well plate at the concentration of 200,000 cells/well. A 10-point dilution series of test compound (top dose 10 uM, 1:5 dilution) was added to the well using the liquid dispenser (Tecan D300e) and incubated for 1 hour at 37 C. Then human INFα recombinant protein (R&D Systems) was added to the well at the final concentration of 5000 units/ml and incubated for 15 minutes at 37 C. Cell lysates were prepared and analyzed by Phospho STAT5 (Tyr693) Kit (Meso Scale Discovery) following manufacturer's protocol.
For calculation of the inhibition rate, the relative pSTAT5 signal of each well=pSTAT5 signal of each well−the average pSTAT5 signal of baseline.
The inhibition %=(the average pSTAT5 signal of INFα treatment wells−the relative of pSTAT5 signal in each compound containing well)/the average pSTAT5 signal of INFα treatment wells*100%
The curve was plotted as the inhibition % (y-axis) vs. compounds concentration (x-axis) and is fitted with log (inhibitor) vs. normalized response—Variable slope by GraphPad Prism7.0.

For a further test, the target named is T6, JAK3 JH1 (Homo sapiens, UniProt P52333).
T6 construct: JAK3 JH1
T6 sequence (P52333 822-1111 limits assumed): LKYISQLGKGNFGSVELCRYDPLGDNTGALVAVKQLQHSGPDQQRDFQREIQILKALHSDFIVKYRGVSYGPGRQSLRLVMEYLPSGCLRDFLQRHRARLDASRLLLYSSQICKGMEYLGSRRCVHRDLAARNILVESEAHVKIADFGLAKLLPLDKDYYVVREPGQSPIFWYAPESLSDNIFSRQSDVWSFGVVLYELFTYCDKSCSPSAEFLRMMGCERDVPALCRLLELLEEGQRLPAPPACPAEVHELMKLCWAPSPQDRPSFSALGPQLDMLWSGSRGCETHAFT
The experiment in a line: KINOMEscan binding, JAK3 JH1.

Test [1] concerns the target T7, human TYK2 (JH2domain-pseudokinase) (Homo sapiens, UniProt P29597).
T7 construct: host or cells: transiently transfected HEK293 cells; unpurified extract
The experiment in a line: TYK2 JH2 domain binding assay (KINOMEscan). The procedure: Binding constants for the compounds described herein against the JH2 domain were determined by the following protocol for a KINOMEscan® assay (DiscoveRx). A fusion protein of a partial length construct of human TYK2 (JH2domain-pseudokinase) (amino acids G556 to D888 based on reference sequence NP_003322.3) and the DNA binding domain of NFkB was expressed in transiently transfected HEK293 cells. From these HEK 293 cells, extracts were prepared in M-PER extraction buffer (Pierce) in the presence of Protease Inhibitor Cocktail Complete (Roche) and Phosphatase Inhibitor Cocktail Set II (Merck) per manufacturers' instructions. The TYK2 (JH2domain-pseudokinase) fusion protein was labeled with a chimeric double-stranded DNA tag containing the NFkB binding site fused to an amplicon for qPCR readout, which was added directly to the expression extract (the final concentration of DNA-tag in the binding reaction is 0.1 nM).
Streptavidin-coated magnetic beads (Dynal M280) were treated with a biotinylated small molecule ligand for 30 minutes at room temperature to generate affinity resins the binding assays. The liganded beads were blocked with excess biotin and washed with blocking buffer (SeaBlock (Pierce), 1% BSA, 0.05% Tween 20, 1 mM DTT) to remove unbound ligand and to reduce nonspecific binding.
The binding reaction was assembled by combining 16 μl of DNA-tagged kinase extract, 3.8 μl liganded affinity beads, and 0.18 μl test compound (PBS/0.05% Tween 20/10 mM DTT/0.1% BSA/2 μg/ml sonicated salmon sperm DNA)]. Extracts were used directly in binding assays without any enzyme purification steps at a ≥10,000-fold overall stock dilution (final DNA-tagged enzyme concentration <0.1 nM). Extracts were loaded with DNA-tag and diluted into the binding reaction in a two-step process. First extracts were diluted 1:100 in 1× binding buffer (PBS/0.05% Tween 20/10 mM DTT/0.1% BSA/2 μg/ml sonicated salmon sperm DNA) containing 10 nM DNA-tag. This dilution was allowed to equilibrate at room temperature for 15 minutes and then subsequently diluted 1:100 in 1× binding buffer. Test compounds were prepared as 111× stocks in 100% DMSO. Kds were determined using an 11-point 3-fold compound dilution series with three DMSO control points. All compounds for Kd measurements were distributed by acoustic transfer (non-contact dispensing) in 100% DMSO. The compounds were then diluted directly into the assays such that the final concentration of DMSO was 0.9%. All reactions were performed in polypropylene 384-well plates. Each was a final volume of 0.02 mL. Assays were incubated with shaking for 1 hour at room temperature. Then the beads were pelleted and washed with wash buffer (1×PBS, 0.05% Tween 20) to remove displaced kinase and test compound. The washed based were re-suspended in elution buffer (1×PBS, 0.05% Tween 20, 0.5 μM non-biotinylated affinity ligand) and incubated at room temperature with shaking for 30 minutes. The kinase concentration in the eluates was measured by qPCR. qPCR reactions were assembled by adding 2.5 μL of kinase eluate to 7.5 μL of qPCR master mix containing 0.15 μM amplicon primers and 0.15 μM amplicon probe. The qPCR protocol consisted of a 10 minute hot start at 95° C., followed by 35 cycles of 95° C. for 15 seconds, 60° C. for 1 minute.
Test compounds were prepared as 111× stocks in 100% DMSO. Kds were determined using an 11-point 3-fold compound dilution series with three DMSO control points. All compounds for Kd measurements were distributed by acoustic transfer (non-contact dispensing) in 100% DMSO. The compounds were then diluted directly into the assays such that the final concentration of DMSO was 0.9%. The Kds were determined using a compound top concentration of 30,000 nM. Kd measurements were performed in duplicate.
Binding constants (Kds) were calculated with a standard dose-response curve using the Hill equation: […]
The Hill Slope was set to −1. […]

T7 sequence (P29597 556-888): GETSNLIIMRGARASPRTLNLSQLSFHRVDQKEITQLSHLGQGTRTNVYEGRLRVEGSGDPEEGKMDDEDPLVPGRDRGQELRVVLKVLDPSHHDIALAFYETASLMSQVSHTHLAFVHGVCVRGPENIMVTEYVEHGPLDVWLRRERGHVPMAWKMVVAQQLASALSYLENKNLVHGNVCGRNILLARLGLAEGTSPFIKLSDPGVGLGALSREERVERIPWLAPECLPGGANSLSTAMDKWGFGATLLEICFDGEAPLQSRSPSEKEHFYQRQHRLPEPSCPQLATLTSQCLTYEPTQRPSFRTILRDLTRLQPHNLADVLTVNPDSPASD
T1 sequence (O60674 849-1124 limits assumed): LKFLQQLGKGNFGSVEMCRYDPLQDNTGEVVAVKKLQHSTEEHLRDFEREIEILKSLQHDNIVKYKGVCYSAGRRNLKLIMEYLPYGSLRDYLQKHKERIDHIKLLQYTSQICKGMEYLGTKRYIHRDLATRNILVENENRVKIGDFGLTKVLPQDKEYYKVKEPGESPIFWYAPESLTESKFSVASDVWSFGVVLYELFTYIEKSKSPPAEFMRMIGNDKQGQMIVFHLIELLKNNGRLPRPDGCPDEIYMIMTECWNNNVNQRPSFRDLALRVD
T4 sequence (P23458 583-855 limits assumed): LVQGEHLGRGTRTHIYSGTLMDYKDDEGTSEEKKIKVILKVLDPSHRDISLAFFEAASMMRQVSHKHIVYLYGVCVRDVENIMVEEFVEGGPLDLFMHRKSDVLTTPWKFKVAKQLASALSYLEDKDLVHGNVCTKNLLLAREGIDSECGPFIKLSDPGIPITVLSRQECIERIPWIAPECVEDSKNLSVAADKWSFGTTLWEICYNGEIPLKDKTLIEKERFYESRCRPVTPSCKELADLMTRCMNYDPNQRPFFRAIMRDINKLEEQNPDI
T3 sequence (O60674 545-809 limits assumed): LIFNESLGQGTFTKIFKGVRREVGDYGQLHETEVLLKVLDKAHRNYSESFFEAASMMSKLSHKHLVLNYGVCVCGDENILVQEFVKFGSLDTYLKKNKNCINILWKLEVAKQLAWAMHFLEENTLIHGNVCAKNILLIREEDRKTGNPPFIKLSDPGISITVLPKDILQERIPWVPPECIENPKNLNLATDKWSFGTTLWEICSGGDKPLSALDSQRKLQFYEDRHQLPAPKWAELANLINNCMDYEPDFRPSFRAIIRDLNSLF

In the case of `CNc1cc2nn3c(cnc13)C(=O)N[C@@H]1CCC[C@H]1OCc1cc(c3nn(C)nc3c1)N2` [Compound 4, (1^5E,3^4E,6^1R,6^2R)-3^2-Methyl-1^8-(methylamino)-3^2H-5-oxa-2,7-diaza-1(6,3),3(4,6)-diimidazo[1,2-b]pyridazina-6(1,2)-cyclopentanacyclooctaphan-8-one], the Kd on JAK2 JH1 is 1 to 10 µM; at TYK2 JH1, 10 to 30 µM; on JAK2 JH2 it was 1 to 10 µM; at JAK1 JH2, 0.01 to 1 µM; at JAK1 JH1, no less than 30 µM; at JAK3 JH1, 10 to 30 µM. In [1], this compound returned a Kd of less than 0.01 µM. The IC50 with IFNa, PBMCs, p-STAT3 is less than 0.1 µM; in the test on IFNa, PBMCs, p-STAT5, less than 0.1 µM.

For orientation: Kd means the free concentration of one partner at which half of the binding sites on the other are occupied at equilibrium, for simple one-to-one binding. Usually IC50 stands for the point on the concentration scale where inhibition reaches its midpoint. High values mean lower potency, low ones higher potency.
